According to US8883180B2 (priority 2007, dated 2014):
Where two headings read alike, the source gives them in different places.

Experiments:
Assay type in all cases: in vivo
[1] = system: rice blast (Pyricularia oryzae); details: 20 ppm, inoculated 1 day after spraying, evaluated 5 days after inoculation
[2] = system: rice blast (Pyricularia oryzae); details: 100 ppm, inoculated 5 days after spraying, evaluated 7 days after inoculation
[3] = system: Blumeria graminis f. sp. hordei; assay: Blumeria test (barley)/SAR 5d; details: 1000 ppm, evaluated 7 days after inoculation
[4] = system: larvae of the mustard beetle (Phaedon cochleariae); assay: Phaedon cochleariae - test (sprayed cabbage leaves); details: for Efficacy in % after 3d: Table C-1, mortality; for Efficacy in % after 4d: Table C-2, mortality; for Efficacy in % after 6d: Table C-3, mortality
Description: (§1) Solvent: 7 parts by weight of dimethylformamide
(§2) Emulsifier: 2 parts by weight of alkylaryl polyglycolether
(§3) To produce a suitable preparation of active compound, 1 part by weight of active compound is mixed with the stated amount of solvent and emulsifier, and the concentrate is diluted with emulsifier-containing water to the desired concentration.
Cabbage leaves (Brassica oleracea) are treated by being sprayed with the preparation of the active compound at the desired concentration and are infested with larvae of the mustard beetle (Phaedon cochleariae) as long as the leaves are still moist.
After the specified period of time, the mortality in % is determined. 100% means that all the beetle larvae have been killed; 0% means that none of the beetle larvae have been killed.

[5] = system: larvae of the fall army worm (Spodoptera frugiperda); assay: Spodoptera frugiperda - test (sprayed cabbage leaves); details: mortality
Description: as §1, §2, §3
Cabbage leaves (Brassica oleracea) are treated by being sprayed into the preparation of the active compound of the desired concentration and are infested with larvae of the fall army worm (Spodoptera frugiperda) as long as the leaves are still moist.
After the specified period of time, the mortality in % is determined. 100% means that all the caterpillars have been killed; 0% means that none of the caterpillars have been killed.

[6] = system: larvae of the Brown plant hopper (Nilaparvata lugens); assay: Nilaparvata lugens - test (sprayed rice plants); details: mortality
Description: as §1, §2, §3
Rice plants (Oryza sativa) are treated by being sprayed with the preparation of the active compound at the desired concentration and are infested with larvae of the Brown plant hopper (Nilaparvata lugens) as long as the leaves are still moist.
After the specified period of time, the mortality in % is determined. 100% means that all the hopper larvae have been killed; 0% means that none of the hopper larvae have been killed.

SMILES | Efficacy in % [1] [%] | Efficacy in % [2] [%] | Efficacy in % ([3]; Table A-1, 1st leaf) [%] | Efficacy in % ([3]; Table A-2, printed 1st leaf) [%] | Efficacy in % after 4d ([4]; 4 ppm) [%] | Efficacy in % after 3d ([6]; 4 ppm) [%] | also measured
N#Cc1ccccc1NC(=O)c1snc(Cl)c1Cl [Isotianil, 3,4-dichloro-N-(2-cyanophenyl)-5-isothiazolecarboxamide] | 35 | 43 | 44 | 44 | – | – | Efficacy in % after 3d ([4]; 200 ppm): 0%; Efficacy in % after 4d ([4]; 200 ppm): 15%; Efficacy in % after 6d ([4]; 200 ppm): 0%; Efficacy in % after 6d ([5]; 200 ppm): 0%; Efficacy in % after 3d ([6]; 200 ppm): 0%
N#C/N=C1\SCCN1Cc1ccc(Cl)nc1 [Thiacloprid, thiacloprid] | – | – | – | – | 45 | – | –
O=[N+]([O-])NC1=NCCN1Cc1ccc(Cl)nc1 [Imidacloprid, imidacloprid] | 0 | 0 | – | – | – | – | Efficacy in % after 3d ([4]; 4 ppm): 0%
C/C(=N\C#N)N(C)Cc1ccc(Cl)nc1 [Acetamiprid, acetamiprid] | – | – | – | – | – | – | Efficacy in % after 6d ([5]; 0.16 ppm): 15%
CN/C(=N\[N+](=O)[O-])NCc1cnc(Cl)s1 [Clothianidin, clothianidin] | – | – | – | – | – | 90 | Efficacy in % after 4d ([4]; 20 ppm): 70%; Efficacy in % after 6d ([4]; 4 ppm): 90%
CNC(=O)c1cc(Cl)cc(C)c1NC(=O)c1cc(Br)nn1-c1ncccc1Cl [Chlorantraniliprole, chlorantraniliprole] | 0 | 0 | 11 | 0 | 70 | 0 | Efficacy in % after 3d ([4]; 0.16 ppm): 0%; Efficacy in % after 4d ([4]; 0.8 ppm): 45%; Efficacy in % after 6d ([4]; 0.8 ppm): 15%; Efficacy in % after 6d ([5]; 0.032 ppm): 15%
